Source: patent US5939100A, “Composition for drug delivery comprising nicotine or a derivative thereof and starch microspheres and method for the manufacturing thereof” (Pharmacia and UpJohn AB, priority 1993, dated 1999)
Where two headings read alike, the source gives them in different places.

Experiment: Intravenous administration of nicotine in rats (plasma nicotine, pharmacokinetics)
Assay type: in vivo, rat (male Lewis rats, Lew/Mol)
Conditions: rat, 0.15 mg/kg BW
Description: The plasma values obtained after i.v. administration of nicotine were just like those obtained by intranasal administration analysed for the number of phases.
One phase was recognized corresponding to only one elimination phase.
The model was fitted to the data using weighted least squares algoritm with the weighing factor=1.
The plasma nicotine values as a function of time after i.v. administration of nicotine are shown in the below Table 3 and FIG. 2. Six animals were used in the study. The pharmacokinetic parameters are calculated as described for the data obtained by intranasal administration.

**Q.** Which concentration at […] (15 minutes after i.v. adm., read-out: Plasma nicotine values, average for 6 rats) does the source give for `CN1CCCC1c1cccnc1` (stereo not drawn) [nicotine] here?
**A.** 47 ng/mL

**Q.** What about the concentration at 0.5 h (30 minutes after i.v. adm., read-out: Plasma nicotine values, average for 6 rats) of the same compound?
**A.** 61 ng/mL

**Q.** What about the concentration at 0.75 h (45 minutes after i.v. adm., read-out: Plasma nicotine values, average for 6 rats) of the same compound?
**A.** 86 ng/mL

**Q.** What about the concentration at 1 h (60 minutes after i.v. adm., read-out: Plasma nicotine values, average for 6 rats) of the same compound?
**A.** 50 ng/mL

**Q.** And the concentration at […] (75 minutes after i.v. adm., read-out: Plasma nicotine values, average for 6 rats)?
**A.** 51 ng/mL

**Q.** And the concentration at […] (90 minutes after i.v. adm., read-out: Plasma nicotine values, average for 6 rats)?
**A.** 38 ng/mL

**Q.** And the concentration at 1.75 h (105 minutes after i.v. adm., read-out: Plasma nicotine values, average for 6 rats)?
**A.** 38 ng/mL

**Q.** And the concentration at 2 h (120 minutes after i.v. adm., read-out: Plasma nicotine values, average for 6 rats)?
**A.** 59 ng/mL

**Q.** And the concentration at […] (150 minutes after i.v. adm., read-out: Plasma nicotine values, average for 6 rats)?
**A.** 36 ng/mL

**Q.** What about the concentration at 3 h (180 minutes after i.v. adm., read-out: Plasma nicotine values, average for 6 rats) of the same compound?
**A.** 22 ng/mL

**Q.** What about the concentration at 3.5 h (210 minutes after i.v. adm., read-out: Plasma nicotine values, average for 6 rats) of the same compound?
**A.** 25 ng/mL

**Q.** What about the concentration at 4 h (240 minutes after i.v. adm., read-out: Plasma nicotine values, average for 6 rats) of the same compound?
**A.** 20 ng/mL

**Q.** What about the half-life (i.v., SIPHAR, read-out: Half-life (Ke line)) of the same compound?
**A.** 156 min

**Q.** And the k el (i.v., SIPHAR, read-out: Ke, parameter value (converted))?
**A.** 7.33e-05 s⁻¹

**Q.** And the AUC(0-inf) (i.v., trapezoidal rule, read-out: AUC0-.infin. (converted))?
**A.** 262 ng·h/mL
